For 39 compounds, IC50 results are on record in BindingDB's records for patent WO2025049746 (Eikon Therapeutics, 2025).

Assay [1] addresses Bifunctional 3'-5' exonuclease/ATP-dependent helicase WRN (Homo sapiens, UniProt Q14191). Kind of assay: ADP-Glo Kinase Assay. The method, then: ATPase activity was measured using the ADP-Glo Kinase Assay following the manufacturers recommended protocol.
In general terms: In ADP-Glo the light output rises with the ADP produced.

For assay [2], the target named is T1, Bifunctional 3'-5' exonuclease/ATP-dependent helicase WRN [480-1251] (UniProt Q14191).
T1 construct: 480-1251
T1 sequence (Q14191 480-1251): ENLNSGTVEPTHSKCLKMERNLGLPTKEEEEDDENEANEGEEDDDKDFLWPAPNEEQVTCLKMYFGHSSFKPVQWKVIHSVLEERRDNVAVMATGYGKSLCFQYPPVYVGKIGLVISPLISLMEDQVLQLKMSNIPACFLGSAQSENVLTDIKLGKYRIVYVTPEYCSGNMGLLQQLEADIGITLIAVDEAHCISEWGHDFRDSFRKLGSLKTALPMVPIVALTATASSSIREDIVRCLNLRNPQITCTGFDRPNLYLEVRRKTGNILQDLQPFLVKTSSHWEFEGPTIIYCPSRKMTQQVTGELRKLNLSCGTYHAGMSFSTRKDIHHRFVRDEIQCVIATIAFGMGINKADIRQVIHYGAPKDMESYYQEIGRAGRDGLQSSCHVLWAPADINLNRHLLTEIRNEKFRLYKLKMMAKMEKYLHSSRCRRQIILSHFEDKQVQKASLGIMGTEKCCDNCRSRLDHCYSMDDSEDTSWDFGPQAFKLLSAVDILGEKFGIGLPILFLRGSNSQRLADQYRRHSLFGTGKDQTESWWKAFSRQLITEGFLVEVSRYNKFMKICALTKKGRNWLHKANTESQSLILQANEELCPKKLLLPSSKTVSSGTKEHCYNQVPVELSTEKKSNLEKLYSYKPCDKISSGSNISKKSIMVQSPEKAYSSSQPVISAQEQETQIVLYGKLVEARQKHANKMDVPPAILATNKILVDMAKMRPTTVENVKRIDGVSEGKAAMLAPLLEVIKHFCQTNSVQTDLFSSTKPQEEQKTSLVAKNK
As to the kind of experiment: Biochemical Activity Assays.

The term IC50 denotes the concentration at which inhibition is half-maximal. Low values mean inhibition by little substance, high ones a need for much substance.

Chain of Bifunctional 3'-5' exonuclease/ATP-dependent helicase WRN (Q14191 whole entry): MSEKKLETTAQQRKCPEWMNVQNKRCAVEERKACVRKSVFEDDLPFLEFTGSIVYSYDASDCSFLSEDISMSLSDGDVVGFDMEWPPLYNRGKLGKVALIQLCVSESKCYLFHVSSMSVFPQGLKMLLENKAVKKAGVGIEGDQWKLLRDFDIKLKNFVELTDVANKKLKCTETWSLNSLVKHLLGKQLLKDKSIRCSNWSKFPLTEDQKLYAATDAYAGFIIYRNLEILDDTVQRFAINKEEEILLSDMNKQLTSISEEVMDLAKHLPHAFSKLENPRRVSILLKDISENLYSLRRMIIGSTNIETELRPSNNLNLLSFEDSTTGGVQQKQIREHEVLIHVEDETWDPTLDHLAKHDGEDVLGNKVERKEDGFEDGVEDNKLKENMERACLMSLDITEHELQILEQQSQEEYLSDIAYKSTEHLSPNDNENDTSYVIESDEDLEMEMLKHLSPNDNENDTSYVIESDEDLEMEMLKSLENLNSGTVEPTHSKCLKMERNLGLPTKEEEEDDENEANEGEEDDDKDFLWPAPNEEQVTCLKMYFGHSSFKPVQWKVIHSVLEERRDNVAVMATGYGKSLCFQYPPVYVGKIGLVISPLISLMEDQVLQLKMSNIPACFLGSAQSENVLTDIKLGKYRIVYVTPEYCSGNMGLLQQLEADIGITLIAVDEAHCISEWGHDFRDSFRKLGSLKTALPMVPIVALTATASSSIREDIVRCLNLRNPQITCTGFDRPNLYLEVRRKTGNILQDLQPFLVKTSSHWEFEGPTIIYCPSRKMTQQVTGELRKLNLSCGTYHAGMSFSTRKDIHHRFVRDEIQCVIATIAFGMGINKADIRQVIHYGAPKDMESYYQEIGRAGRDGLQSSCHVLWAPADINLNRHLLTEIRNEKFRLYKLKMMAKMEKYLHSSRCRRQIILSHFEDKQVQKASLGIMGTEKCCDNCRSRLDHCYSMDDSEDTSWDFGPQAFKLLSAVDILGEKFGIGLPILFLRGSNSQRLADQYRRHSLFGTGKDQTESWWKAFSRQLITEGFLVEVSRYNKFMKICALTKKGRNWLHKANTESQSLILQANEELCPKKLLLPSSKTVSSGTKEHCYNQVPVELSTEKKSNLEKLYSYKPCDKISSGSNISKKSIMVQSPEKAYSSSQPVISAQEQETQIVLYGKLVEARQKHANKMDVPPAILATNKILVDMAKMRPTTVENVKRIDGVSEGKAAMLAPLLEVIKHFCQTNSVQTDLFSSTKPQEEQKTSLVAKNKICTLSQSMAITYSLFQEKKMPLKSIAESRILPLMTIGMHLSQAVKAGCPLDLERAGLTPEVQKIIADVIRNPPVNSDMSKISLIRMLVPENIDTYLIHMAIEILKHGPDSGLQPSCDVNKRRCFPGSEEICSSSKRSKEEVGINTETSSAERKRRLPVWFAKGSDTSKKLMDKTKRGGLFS

With `CCc1c(N2CCN(C(=O)c3ncnc(N4CC(OC)C4)c3O)CC2)c(=O)n2nc(-c3ccc4c(c3)COC4)nc2n1CC(=O)Nc1ccc(C(F)(F)F)cc1Cl` [WO2025049746, Example 415], the half-inhibitory concentration (IC50) in assay [1] was 3 nM; in assay [2], 1 nM.

With `CCc1c(N2CCN(C(=O)c3ncnc(C)c3O)CC2)c(=O)n2nc(N3CCC3)nc2n1CC(=O)Nc1ccc(C(F)(F)F)cc1Cl` [WO2025049746, Example 28], the IC50 was determined as 90.9 nM in assay [1] and 60.3 nM in assay [2].

As for `CCc1c(N2CCN(C(=O)C(F)(F)CO)CC2)c(=O)n2nc(C3=CCOCC3)nc2n1CC(=O)Nc1ccc(C(F)(F)F)cc1Cl` [WO2025049746, Example 56], the figures for the IC50 in assay [1] and in assay [2] were 737 nM and 139 nM, respectively.

On to `CCc1c(N2CCN(C(=O)c3ncnc(C)c3O)CC2)c(=O)n2nc(-c3ccc4c(c3)CCO4)nc2n1CC(=O)Nc1c(Cl)cc(C(F)(F)F)c2c1CC2` [WO2025049746, Example 383], for which the IC50 in assay [1] worked out at 94 nM; in assay [2], 74 nM.

Regarding `CCc1c(N2CCN(C(=O)c3ncnc(C)c3O)CC2)c(=O)n2nc(-c3cccc4c3COCC4)nc2n1CC(=O)Nc1ccc(C(F)(F)F)cc1Cl` [WO2025049746, Example 5], the 50% inhibitory concentration (IC50) was 86.9 nM in assay [1] and 59.9 nM in assay [2].

For `CCCn1cc2cc(-c3nc4n(CC(=O)Nc5ccc(C(F)(F)F)cc5Cl)c(CC)c(N5CCN(C(=O)c6ncnc(C)c6O)CC5)c(=O)n4n3)ccc2n1` [WO2025049746, Example 302], the values for the half-maximal inhibitory concentration (IC50) in assay [1] and in assay [2] were 29 nM and 35 nM, respectively.

Regarding `CCc1c(N2CCN(C(=O)c3ncnc(C)c3O)CC2)c(=O)n2nc(C3=CCOCC3)nc2n1CC(=O)NC12CCC(C(F)(F)F)(CC1)C2` [WO2025049746, Example 362], the IC50 worked out at 1650 nM in assay [1] and 615 nM in assay [2].

Take `CCc1c(N2CCN(C(=O)c3ncnc(C)c3O)CC2)c(=O)n2nc(-c3ccc4nc(C)ccc4c3)nc2n1CC(=O)Nc1ccc(C(F)(F)F)cc1Cl` [WO2025049746, Example 323]: the figures for the IC50 in assay [1] and in assay [2] were 26 nM and 28 nM, respectively.

As for `CCc1c(N2CCN(C(=O)c3ncnc(C)c3O)CC2)c(=O)n2nc(-c3ccc4c(c3F)CCO4)nc2n1CC(=O)Nc1ccc(C(F)(F)F)cc1Cl` [WO2025049746, Example 180], the values for the IC50 in assay [1] and in assay [2] were 53 nM and 45 nM, respectively.

`CCc1c(N2CCN(C(=O)c3ncnc(C)c3O)CC2)c(=O)n2nc(-c3ccc4c(c3)COC43CCOCC3)nc2n1CC(=O)Nc1ccc(C(F)(F)F)cc1Cl` [WO2025049746, Example 289]: the half-inhibitory concentration (IC50) in assay [1] was determined as 53 nM; in assay [2] it was 56 nM.

Consider `CCc1c(N2CCN(C(=O)c3ncnc(C)c3O)CC2)c(=O)n2nc(-c3ccc4c(c3)CCOC4)nc2n1CC(=O)Nc1ccc(C(F)(F)F)c2c1CC2` [WO2025049746, Example 98], for which the IC50 was 30.8 nM in assay [1] and 23.9 nM in assay [2].

On to `CCc1c(N2CCN(C(=O)c3nc4n(c(=O)c3O)CCC4)CC2)c(=O)n2nc(-c3ccc4c(c3)COC4)nc2n1CC(=O)Nc1ccc(C(F)(F)F)cc1Cl` [WO2025049746, Example 422], for which the figures for the 50% inhibitory concentration (IC50) in assay [1] and in assay [2] were 47 nM and 38 nM, respectively.

Take `CCc1c(N2CCN(C(=O)c3ncnc(C)c3O)CC2)c(=O)n2nc(-c3ccc4c(c3)ncn4C)nc2n1CC(=O)Nc1ccc(C(F)(F)F)cc1Cl` [WO2025049746, Example 254]: the IC50 in assay [1] turned out to be 25 nM; in assay [2] it was 24 nM.

Turning to `CCc1c(N2CCN(C(=O)CO)CC2)c(=O)n2nc(C3=CCOCC3)nc2n1CC(=O)Nc1ccc(C(F)(F)F)cc1Cl` [WO2025049746, Example 53], the half-maximal inhibitory concentration (IC50) in assay [1] worked out at 440 nM; in assay [2], 254 nM.

As for `CCc1c(N2CCN(C(=O)C3=CCOCC3)CC2)c(=O)n2nc(-c3ccnc(O)n3)nc2n1CC(=O)Nc1ccc(C(F)(F)F)cc1Cl` [WO2025049746, Example 430], the values for the IC50 in assay [1] and in assay [2] were 550 nM and 373 nM, respectively.

For `CCc1c(N2CCN(C(=O)c3ncnc(C)c3O)CC2)c(=O)n2nc(-c3ccc4nn(CC(F)F)cc4c3)nc2n1CC(=O)Nc1ccc(C(F)(F)F)cc1Cl` [WO2025049746, Example 292], the concentration for half-maximal inhibition (IC50) in assay [1] worked out at 28 nM; in assay [2], 29 nM.

Consider `CCc1c(N2CCN(C(=O)c3ncnc(C)c3O)CC2)c(=O)n2nc(-c3ccc4c(c3)OCO4)nc2n1CC(=O)Nc1ccc(C(F)(F)F)cc1Cl` [WO2025049746, Example 10], for which the IC50 in assay [1] was found to be 28.5 nM; in assay [2], 22.1 nM.

With `CCc1c(N2CCN(C(=O)c3ncnc(C)c3O)CC2)c(=O)n2nc(-c3ccc4c(c3)COC4)nc2n1CC(=O)Nc1ccc(C2(C(F)(F)F)CC2)cc1Cl` [WO2025049746, Example 420], the values for the IC50 in assay [1] and in assay [2] were 100 nM and 65 nM, respectively.

`CCc1c(N2CCN(C(=O)c3nc4n(c(=O)c3O)CCOC4)CC2)c(=O)n2nc(C3=CCOCC3)nc2n1CC(=O)Nc1ccc(C(F)(F)F)cc1Cl` [WO2025049746, Example 32]: the IC50 turned out to be 29.7 nM in assay [1] and 25 nM in assay [2].

With `CCc1c(N2CCN(C(=O)c3ncnc(C)c3O)CC2)c(=O)n2nc(C3=CCOCC3)nc2n1CC(=O)NC12CC(CCC(F)(F)F)(C1)C2` [WO2025049746, Example 361], the IC50 in assay [1] and in assay [2] was 29700 nM throughout.

`CCc1c(N2CCN(C(=O)c3ncnc(C)c3O)CC2)c(=O)n2nc(-c3ccc4nn(CC)cc4c3)nc2n1CC(=O)Nc1ccc(C(F)(F)F)cc1Cl` [WO2025049746, Example 319]: the results for the IC50 in assay [1] and in assay [2] were 25 nM and 30 nM, respectively.

Turning to `CCc1c(N2CCN(C(=O)C3=CCOCC3)CC2)c(=O)n2nc(-c3ncc(O)cn3)nc2n1CC(=O)Nc1ccc(C(F)(F)F)cc1Cl` [WO2025049746, Example 436], the IC50 worked out at 103 nM in assay [1] and 50 nM in assay [2].

As to `CCc1c(N2CCN(C(=O)c3ncnc(C)c3O)CC2)c(=O)n2nc(N3CC4(COC4)C3)nc2n1CC(=O)Nc1ccc(C(F)(F)F)cc1Cl` [WO2025049746, Example 26], the IC50 in assay [1] came out at 76.8 nM; in assay [2] it was 62.1 nM.

Turning to `CCc1c(N2CCN(C(=O)c3ncnc(C)c3O)CC2)c(=O)n2nc(C3=CCOCC3)nc2n1CC(=O)Nc1ccc(OC(F)F)cc1F` [WO2025049746, Example 369], the results for the IC50 in assay [1] and in assay [2] were 85 nM and 77 nM, respectively.

Regarding `CCc1c(N2CCN(C(=O)c3ncnc(C)c3O)CC2)c(=O)n2nc(-c3ccc4c(c3)CCOC4)nc2n1CC(=O)Nc1ccc(Cl)c(OC(F)F)c1Cl` [WO2025049746, Example 406], the figures for the IC50 in assay [1] and in assay [2] were 46 nM and 36 nM, respectively.

For `CCc1c(N2CCN(C(=O)c3ncnc(C)c3O)CC2)c(=O)n2nc(-c3cc4c(cc3F)COCC4)nc2n1CC(=O)Nc1ccc(C(F)(F)F)cc1Cl` [WO2025049746, Example 260], the IC50 in assay [1] was found to be 22 nM; in assay [2] it was 21 nM.

Take `CCc1c(N2CCN(C(=O)c3ncnc(C)c3O)CC2)c(=O)n2nc(-c3cnc4nn(C)cc4c3)nc2n1CC(=O)Nc1ccc(C(F)(F)F)cc1Cl` [WO2025049746, Example 313]: the IC50 in assay [1] worked out at 35 nM; in assay [2], 38 nM.

As to `CCc1c(N2CCN(C(=O)c3ncnc(C)c3O)CC2)c(=O)n2nc(-c3ccc(NC(=O)NC)cc3)nc2n1CC(=O)Nc1ccc(C(F)(F)F)cc1Cl` [WO2025049746, Example 331], the IC50 stood at 20 nM in assay [1] and 26 nM in assay [2].

For the compound `CCc1c(N2CCN(C(=O)c3ncnc(C)c3O)[C@H]3CC[C@@H]32)c(=O)n2nc(-c3ccc4c(c3)COC4(C)C)nc2n1CC(=O)Nc1ccc(C(F)(F)F)cc1Cl` [WO2025049746, Example 458], the half-inhibitory concentration (IC50) in assay [1] was 90 nM; in assay [2] it was 93 nM.

For `CCc1c(N2CCN(C(=O)c3ncnc(C)c3O)CC2)c(=O)n2nc(-c3ccc4c(c3)[C@@H](C(F)(F)F)OC4)nc2n1CC(=O)Nc1ccc(C(F)(F)F)cc1Cl` [WO2025049746, Example 275], the IC50 in assay [1] was found to be 79 nM; in assay [2] it was 92 nM.

With `CCc1c(N2CCN(C(=O)c3ccccc3NS(=O)(=O)C3CC3)CC2)c(=O)n2nc(-c3ccc4c(c3)CCOC4)nc2n1CC(=O)Nc1ccc(C(F)(F)F)cc1Cl` [WO2025049746, Example 91], the results for the IC50 in assay [1] and in assay [2] were 106 nM and 84.6 nM, respectively.

For the compound `CCc1c(N2CCN(C(=O)c3ncnc(C)c3O)CC2)c(=O)n2nc(-c3ccc4ncncc4c3)nc2n1CC(=O)Nc1ccc(C(F)(F)F)cc1Cl` [WO2025049746, Example 263], the IC50 in assay [1] was 24 nM; in assay [2], 23 nM.

Take `CCc1c(N2CCN(C(=O)c3ncnc(C)c3O)CC2)c(=O)n2nc(-c3cccc4c3OCCO4)nc2n1CC(=O)Nc1c(Cl)cc(C(F)(F)F)c2c1CC2` [WO2025049746, Example 388]: the IC50 stood at 87 nM in assay [1] and 58 nM in assay [2].

For `CCc1c(N2CCN(C(=O)c3ncnc(C)c3O)CC2)c(=O)n2nc(C3=CCOCC3)nc2n1CC(=O)NC12CC(C3CCC3)(C1)C2` [WO2025049746, Example 352], the figures for the concentration for half-maximal inhibition (IC50) in assay [1] and in assay [2] were 174 nM and 122 nM, respectively.

As to `CCc1c(N2CCN(C(=O)c3ncnc(C)c3O)CC2)c(=O)n2nc(-c3cc(C)c4ncccc4c3)nc2n1CC(=O)Nc1ccc(C(F)(F)F)cc1Cl` [WO2025049746, Example 336], the IC50 in assay [1] was found to be 53 nM; in assay [2], 60 nM.

In the case of `CCc1c(N2CCN(C(=O)c3ncnc(C)c3O)CC2)c(=O)n2nc(-c3cc4c(cc3F)C3(CN(C)C3)OC4)nc2n1CC(=O)Nc1ccc(C(F)(F)F)cc1Cl` [WO2025049746, Example 273], the half-inhibitory concentration (IC50) in assay [1] worked out at 43 nM; in assay [2] it was 48 nM.

Consider `CCc1c(N2CCN(C(=O)c3ncnc(C)c3O)CC2)c(=O)n2nc(-c3cc4n(n3)CCC4)nc2n1CC(=O)Nc1ccc(C(F)(F)F)cc1Cl` [WO2025049746, Example 183], for which the half-maximal inhibitory concentration (IC50) in assay [1] was determined as 52 nM; in assay [2], 46 nM.

With `CCc1c(N2CCN(C(=O)c3ncnc(C)c3O)CC2)c(=O)n2nc(-c3ccc4c(c3)[C@H](C)OC4)nc2n1CC(=O)Nc1ccc(C(F)(F)F)cc1Cl` [WO2025049746, Example 189], the IC50 in assay [1] was 34 nM; in assay [2], 29 nM.

Consider `CCc1c(N2CCN(C(=O)c3ccccc3NS(C)(=O)=O)CC2)c(=O)n2nc(-c3cccc4c3OCCO4)nc2n1CC(=O)Nc1ccc(C(F)(F)F)cc1Cl` [WO2025049746, Example 378], for which the 50% inhibitory concentration (IC50) is 154 nM in assay [1] and 96 nM in assay [2].
